# Data from US6174884A, “1,5-dihydro-pyrazolo[34-D]-pyrimidinone derivatives” (Bayer Aktiengesellschaft, priority 1997, dated 2001).
# Legend:
# PDE I = experiment: Phosphodiesterase inhibition in vitro, PDE I (Ca-calmodulin-stimulatable); format: biochemical, porcine aorta, porcine brain or, preferably, bovine aorta; settings: Ca/calmodulin added, substrate 10^-6 mol/l
# Source text: (§1) The c-GMP-stimulatable PDE II, the c-GMP-inhibitable PDE III and the cAMP-specific PDE IV were isolated either from porcine or bovine heart myocard. The Ca^2+ -calmodulin-stimulatable PDE I was isolated from porcine aorta, porcine brain or, preferably, bovine aorta. The c-GMP-specific PDE V was obtained from porcine small intestine, porcine aorta, human platelets and, preferably, bovine aorta. They were purified by anion exchange chromatography on MonoQ® Pharmacia following essentially the method of M. Hoey and Miles D. Houslay, Biochemical Pharmacology, Vol. 40, 193-202 (1990) and C. Lugman et al. Biochemical Pharmacology Vol. 35 1743-1751 (1986).
# (§2) The enzyme activity is determined in a test batch of 100 μl in 20 mM Tris/HCl buffer pH 7.5 which comprises 5 mM MgCl2, 0.1 mg/ml bovine serum albumin and either 800 Bq ^3 HcAMP or ^3 HcGMP. The end concentration of the corresponding nucleotide is 10^-6 mol/l. The reaction is started by adding the enzyme, and the quantity of enzyme is such that approx. 50% of the substrate are converted during the incubation time of 30 minutes. To test the cGMP-stimulatable PDE II, ^3 HcAMP is used as substrate, 10^-6 mol/l unlabelled cGMP are added to the batch. To test the Ca-calmodulin-dependent PDE I, 1 μM CaCl2 and 0.1 μM calmodulin are also added to the reaction batch. The reaction is stopped by adding 100 μl of acetonitrile which contains 1 mM cAMP and 1 mM AMP. 100 μl of the reaction batch are separated by HPLC and the cleavage products are quantified on-line using a flow scintillation counter. The substance concentration at which the reaction rate is reduced by 50% is measured. Also used for testing were the "Phosphodiesterase [^3 H] cAMP-SPA enzyme assay" and the "Phosphodiesterase [^3 H]cGMP-SPA enzyme assay" by Amersham Life Science. The test was performed following the manufacturer's protocol. To determine the PDE2 activity, the [^3 H] cAMP SPA assay was used, 10^-6 M cGMP being added to the reaction batch for activating the enzyme. To measure PDE1, 10^-7 M calmodulin and 1 μM CaCl2 were added to the reaction batch. PDE5 was measured using the [^3 H] cGMP SPA assay.
# PDE II = experiment: Phosphodiesterase inhibition in vitro, PDE II (cGMP-stimulatable); format: biochemical, porcine or bovine; settings: 3H-cAMP substrate, 10^-6 mol/l cGMP added
# Source text: as §1, §2
# PDE V = experiment: Phosphodiesterase inhibition in vitro, PDE V (cGMP-specific); format: biochemical; settings: 3H-cGMP substrate
# Source text: as §1, §2
Compound,IC50 (PDE I),IC50 (PDE II),IC50 (PDE V)
"CCc1nn(C(C)CCCc2ccccc2)c2nc(Cc3ccc(Br)cc3)[nH]c(=O)c12 (stereo not drawn) [Example 11, 6-(4-Bromo-benzyl)-1-(1-methyl-4-phenyl-butyl)-3-ethyl-1,5-dihydro-pyrazole[3,4-d]pyrimidin-4-one]",> 10 µM,0.1 µM,0.05 µM
CC(CCCc1ccccc1)n1ncc2c(=O)[nH]c(Cc3ccc(Cl)c(Cl)c3)nc21 (stereo not drawn) [Example 10],0.3 µM,0.5 µM,0.05 µM
"Cc1nn(C(CCCc2ccccc2)C(C)O)c2nc(Cc3ccccc3)[nH]c(=O)c12 (single isomer, unassigned) [Example 33, 6-Benzyl-1-[1-(1-hydroxy-ethyl)-4-phenyl-butyl]-3-methyl-1,5-dihydro-pyrazolo[3,4-d]pyrimidin-4-one]",0.5 µM,0.5 µM,0.8 µM
COc1ccc(Cc2nc3c(cnn3C(C)CCCc3ccccc3)c(=O)[nH]2)cc1OC (stereo not drawn) [Example 9],0.3 µM,0.3 µM,0.3 µM
"Cc1nn(C(CCCc2ccccc2)C(C)O)c2nc(Cc3ccccc3)[nH]c(=O)c12 (single isomer, unassigned) [Example 32, 6-Benzyl-1-[1-(1-hydroxy-ethyl)-4-phenyl-butyl]-3-methyl-1,5-dihydro-pyrazolo[3,4-d]pyrimidin-4-one]",0.5 µM,0.3 µM,0.3 µM
